Read-outs that look alike come from different tables or passages of the source.
What was measured:
NF-κB activity [1] = test: NF-κB luciferase reporter assay in HEK-293 p52 overexpressing cells; format: cell-based; conditions: Homo sapiens, HEK293
Protocol: (§1) For NF-κB luciferase assays, cells were seeded into clear bottom black 96-well plates (Corning Inc., Lowell, US) in antibiotic free culture media in appropriate density. After 24 hrs, cells were transfected with 10 ng of 3×κB luciferase plasmid and 10 ng of pcDNA3.1-Lacl plasmid per well. Empty pcDNA3.1 plasmid was also included to normalize the total weight of DNA transfected to 100 ng. For positive and negative controls respectively, 10 ng of pGL3control or pGL3basic were transfected in place of 3×KB luciferase plasmid. Transfection was carried out using Lipofectamine LTX reagents (Invitrogen, Paisley, UK).
(§2) After 48 hrs post-transfection with luciferase reporter plasmid, the media was aspirated and cells were lyzed using 50 μl/well of Glo-lysis buffer (Promega, Southampton, UK). The plate was left on a rocker for 20 min to facilitate complete cell lysis. […] Subsequently, 30 μl/well of Bright-Glo luciferase substrate (Promega, Southampton, UK) was added to the original plate and asses immediately for luminescence activity. The luminescence produced from either reaction was read using a Flurostar Optima plate reader (BMG tabtech, Bucks, UK).
(§3) The effect of Compound 1a on NF-κB activity was determined by NF-κB luciferase assay in MDA-MB-231 and HEK-293 cells overexpressing Bcl-3 and HEK-293 cells overexpressing p52. […]

[2] = Cell Titre Blue viability assay, MDA-MB-231; conditions: human, MDA-MB-231 cells
Protocol: The viability of cells at experimental endpoints for particular assays was determined using the Cell Titre Blue reagent (Promega, Southampton, UK). This reagent measures the cellular metabolic activity using resazurin as an indicator dye. Viable cells, therefore metabolically active, will reduce resazurin into highly fluorescent resofurin. The resulting fluorescence levels are measured and indicate cell viability.
Cells were plated at low confluency into 96 well plates in 100 μl of complete growth media in triplicates and were incubated at 37° C. in 5% CO2 for the desired test exposure period. For each 100 μl of media in 96 well plates, 20 μl Cell Titre Blue reagent was added followed by incubation for an hour at 37° C. in 5% CO2. Fluorescence was then measured by setting excitation/emission wavelengths to 560/590 nm on a Flurostar Optima plate reader (BMG tabtech, Bucks, UK).
Cell toxicity was evaluated using the Cell Titre Blue viability assay over a range of molarities for 24 hrs.
Selected compounds were dissolved in DMSO and diluted to a highest concentration of 10 μM (0.1% DMSO). In all assays, a DMSO control was always used. Selected compounds were tested for cell toxicity in HEK-293 and MDA-MB-231 cells before being used in cell-based assays. Cell toxicity was evaluated using the Cell Titre Blue viability assay over a range of molarities for 24 hrs

Bcl-3-p50 binding = biological target: T1, Bcl-3-p50 binding (Homo sapiens, UniProt P20749); test: Indirect sandwich ELISA of Bcl-3 binding to p50 in lysates of treated HEK-293 cells overexpressing FLAG-tagged Bcl-3; format: cell-based
T1 construct: expressed in transfected cells; host or cells: HEK-293
T1 sequence (P20749 1-454): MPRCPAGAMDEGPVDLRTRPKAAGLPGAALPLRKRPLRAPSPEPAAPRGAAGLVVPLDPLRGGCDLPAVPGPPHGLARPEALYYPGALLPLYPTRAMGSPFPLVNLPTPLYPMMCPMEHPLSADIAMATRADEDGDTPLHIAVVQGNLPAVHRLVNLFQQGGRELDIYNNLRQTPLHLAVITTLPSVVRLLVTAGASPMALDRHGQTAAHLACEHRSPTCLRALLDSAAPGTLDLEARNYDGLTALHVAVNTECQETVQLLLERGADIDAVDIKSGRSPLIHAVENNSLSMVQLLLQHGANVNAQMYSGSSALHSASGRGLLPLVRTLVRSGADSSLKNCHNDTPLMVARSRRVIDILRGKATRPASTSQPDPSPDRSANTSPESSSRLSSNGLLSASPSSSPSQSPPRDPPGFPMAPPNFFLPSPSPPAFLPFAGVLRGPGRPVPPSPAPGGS
Protocol: Proteins were extracted from cells in order to be analyzed by ELISA assay. The media from tissue culture flask was removed and cells were rinsed with ice cold PBS (Sigma, Dorset, UK). Appropriate volume of PBS (5 ml for T25, 10 ml for T80) was added into the flask and cells were removed with a cell scraper (Nunc, Leics, UK). The cell suspension was then transferred to 15 ml tubes and centrifuged at 11000 rpm for 5 min at room temperature. Resulting pellet was used for protein extraction immediately or stored at −20° C. prior use.
Non-denatured protein extract was prepared using non-denaturing lysis buffer (Table 1) and used to analyze protein-protein interaction.
Complete mini protease inhibitor tablets (Roche, Welwyn Garden City, UK), 10 mM sodium fluoride (Fluka Biochemika), 1 mM sodium pyrophospate and 1 mM sodium orthovanadate (Sigma, Dorset, UK) were added to the buffer prior use. Cell pellets were resuspended in appropriate volume of non-denaturing buffer (50-200 μl) and cultivated on ice 5 min. Cell suspensions were transferred to microcentrifuge tubes and sonicated on ice (3 times 5 s) and centrifuged at 10000 rpm for 10 min at 4° C. The resultant supernatant was used immediately or stored at −20° C. until required.
In our case, ELISA assay was used to detect either the amount of Flag-Bcl-3 protein alone or Flag-Bcl-3 in complex with p50, using indirect or sandwich ELISA respectively.
For Indirect and sandwich ELISA assay, Non-denaturing cell lysate (above) was diluted with TBS/T [tris buffer saline (TBS, Calbiochem, Merck) supplemented with 0.5% v/v Tween (Sigma, Dorset, UK)] to a concentration of 0.5-1 μg/μl and 100 μl was added onto ANTI-Flag coated flat bottom ELISA plates (Sigma, Dorset, UK). Samples were added in triplicates, while TBS/T was used as a negative control. The plate was cultivated at 37° C. for an hour followed by 3×200 μl washes with TBS/T. Primary antibodies, either Bcl-3 (Santa Cruz Biotech) for indirect ELISA and p50 for sandwich ELISA (Abcam) were added in known volumes (125 μl) and concentrations to each well, cultivated covered from light for an hour at room temperature. Another three 200 μl washes with TBS/T were performed before cultivation with alkaline phospatase (AP) conjugated secondary antibody. Meanwhile, para-nitrophenylphosphate solution (pNPP, Santa Cruz Biotechnology, California, USA) was prepared according to manufacturer's instructions (5 mg of pNPP disodium salt in 5 ml of pNPP substrate buffer). The solution was mixed well and covered from light prior to use. pNPP is a substrate of choice for use with alkaline phosphatase and produces a soluble end product that is yellow in colour. Therefore colour changes can be measured and represent the amount of AP present. After cultivation with secondary antibody, the wells were washed 3×200 μl. TBS/T, pNPP solution was added (50 μl/well) and cultivated for an hour covered from light at room temperature. The reaction was stopped by addition of 3N NaOH (20 μl/well) and the colorimetric changes were measured at 405 nm using a plate reader.
HEK-293 cells overexpressing Bcl-3 were cultivated with Compound 1a over a range of molarities for 24 hrs before cell lysates were obtained under non-denaturing conditions. […] Indirect ELISA assay was performed using Bcl-3 antibody to show an equal loading across samples treated with compound 1a (FIG. 2B) and controls (FIG. 2C).
HEK-293 Bcl-3 WT cells were cultivated with selected compounds over a range of molarities for 24 hrs before cell lysates were obtained under non-denaturing conditions. The dose response curve for selected analogues was generated using GraphPad software (FIG. 8A-D).

[3] = Cell Titre Blue viability assay, HEK-293; format: cell-based; conditions: human, HEK-293 cells, HEK-293, 10 μM, vs DMSO
Description: In all assays, a DMSO control was always used.

NF-κB activity [4] = test: NF-κB luciferase reporter assay in HEK-293 cells overexpressing Bcl-3; format: cell-based; conditions: Homo sapiens, HEK293
Protocol: as §1, §2, §3

[5] = HEK-293 overexpressing Bcl-3, 24 hrs, read-out: IC50 Indirect Sandwich ELISA (Bcl-3-p50 binding)
[6] = Table 3, read-out: ELISA assay (μM) IC50

Compound	IC50 (NF-κB activity [1]) [µM]	viability at 24 h, 10 µM [2] [%]	viability at 24 h, 1 mM [2] [%]	IC50 (Bcl-3-p50 binding; [5]) [µM]	viability at 24 h, 10 µM [3] [%]	IC50 (NF-κB activity [4]) [µM]	EC50 at 24 h [2] [µM]	IC50 (Bcl-3-p50 binding; [6]) [µM]	IC50 (Bcl-3-p50 binding; HEK-293 Bcl-3 WT, 24 hrs, IC50 could not be established, calculated with GraphPad, read-out: IC50 Indirect Sandwich ELISA, calculated from the dose response curve) [µM]
O=C(Nc1ccccc1C(=O)NCCN1CCOCC1)c1ccccc1F [Compound 1a, 2-[(2-fluorobenzoyl)amino]-N-(2-morpholin-4-ylethyl)benzamide]	0.211	> 70	72	0.386	> 70	0.16			
COc1ccc(C(=O)Nc2ccccc2C(=O)NCCN2CCOCC2)cc1 [Compound 1f, 2-[(4-methoxybenzoyl)amino]-N-(2-morpholin-4-ylethyl)benzamide]		> 70		0.0602	> 70		781	0.0617	
O=C(Nc1ccccc1C(=O)NCCCN1CCOCC1)c1ccccc1F [Compound 2a]		> 70			> 70				15.2
COc1cccc(C(=O)NCCN2CCOCC2)c1NC(=O)c1ccccc1F [Compound 3a, 2-[(2-fluorobenzoyl)amino]-3-methoxy-N-(2-morpholin-4-ylethyl) benzamide]		> 70		0.119	> 70			0.0119	

Reference: patent US20220017478A1, “2-BENZOYLAMINOBENZAMIDE DERIVATIVES AS BCL-3 INHIBITORS” (University College Cardiff Consultants Limited, priority 2013, published 2022)
